Assay results taken from patent publication US20230093311A1, “HEAT TOLERANCE OR DRYING TOLERANCE IMPROVING AGENT, SALT TOLERANCE IMPROVING AGENT, ACTIVITY IMPROVING AGENT FOR PLANT” (priority 2020, published 2023).
Where two headings read alike, the source gives them in different places.

Legend:
[1] = test system: stem lettuce (Lactuca sativa L.); conditions: humidity 40%; for survival rate: 50 mL of 10 mM aqueous acetic acid solution at root, 24 hours, then 42° C., continuous light, no water supply
Method: A plant that was irrigated, at its root, with 50 mL of water and allowed to absorb it over 24 hours was assigned to water treatment group 1, and a plant that was irrigated, at its root, with 50 mL of a 10 mM aqueous acetic acid solution and allowed to absorb it over 24 hours was assigned to acetic acid treatment group 1.
(§1) The survival rate was calculated by counting the number of stem lettuce seedlings that were not killed by firing.

[2] = test system: tomato (breed: Momotaro, Solanum lycopersicum); conditions: for survival rate: 50 mL at root, 24 hours: 20 mM acetic acid alone, or 10 mM acetic acid and 10 mM malic acid, then 50° C., humidity 10%, no water supply
Method: A plant that was irrigated, at its root, with 50 mL of water and allowed to absorb it over 24 hours was assigned to water treatment group 3, and a plant that was irrigated, at its root, with 50 mL of a 20 mM aqueous acetic acid solution and allowed to absorb it over 24 hours was assigned to acetic acid treatment group 3. Also, a plant that was irrigated, at its root, with 50 mL of an aqueous solution containing 10 mM acetic acid and 10 mM malic acid and allowed to absorb it over 24 hours was assigned to treatment group 3.
as §1

[3] = test system: Spinach (Spinacia oleracea); assay: Activation test 2 (plant growth, plant size after harvest); assay type: in vivo; conditions: pH=6.0, 50 mL at root 3 times, harvest 45 days after first irrigation
Method: Spinach (Spinacia oleracea of the family Amaranthaceae) budded from seeds direct-seeded in a farm field in a plastic greenhouse was used. During the test period, each plant was watered twice a day at 6 a.m. and 4 p.m. from an automatically controlled irrigation system. 2 weeks after budding, a seedling having three to five true leaves was irrigated, at its root, with 50 mL of each testing solution given below. 2 weeks and 4 weeks after the initial irrigation treatment, the plant was irrigated again with 50 mL of the testing solution (irrigated a total of 3 times). […] The average weight and standard deviation of the plants in each test group were calculated. […] The results of the Welch test in these and following drawings mean *: p<0.05 and **: p<0.01. The testing solutions used are as described below. Testing solutions prepared in the same way were also used in activation tests 3 to 6 given below. […] Malic acid treatment group 2: 0.24% (w/w) aqueous malic acid solution Acetic acid treatment group 2: 0.06% (w/w) aqueous acetic acid solution Treatment group 2: aqueous solution containing 0.24% (w/w) malic acid and 0.06% (w/w) acetic acid Each solution was adjusted to pH=6.0 using KOH.

[4] = test system: Carrot (Daucus carota subsp. sativus); assay: Activation test 3 (root growth, plant size after harvest); assay type: in vivo; conditions: 0.24% (w/w) malic acid, 0.06% (w/w) acetic acid, or both, pH=6.0; 50 mL at root 3 times; harvest 90 days after first irrigation; Welch test
Method: Carrot (Daucus carota subsp. sativus of the family Apiaceae) budded from seeds direct-seeded in a farm field was used.
During the test period, each plant was watered by natural rainfall.
2 weeks after budding, a seedling having four to five true leaves was irrigated, at its root, with 50 mL of each testing solution. 3 weeks and 6 weeks after the initial irrigation treatment, the plant was irrigated again with 50 mL of the testing solution (irrigated a total of 3 times).
90 days after the first irrigation treatment, plant individuals were harvested, and aerial parts (leaf parts) were cut off to prepare edible root parts. Then, the wet weights of 100 individuals per test group were measured. Top 10% and bottom 10% of the data were removed, and the average weight and standard deviation of the plants in each test group were calculated as to the remaining 80 individuals.

spinach = assay: Activation test 5 (maintenance of freshness and water after harvest); assay type: in vivo, Spinacia oleracea; conditions: 100 mL/plant at root on the day before harvest, humidity 40%
Method: 18 hours later, the aerial part was harvested by cutting at the root with a cutter, and 5 bunches were wrapped with a piece of newspaper having the same area (30 cm×45 cm) among samples. Four types in total of test groups (20 individuals in total) including all the test groups were placed in a plastic bag (25 cm×[…]), positioned in an upright posture with the mouth of the bag opened, and stored in a refrigerator of 4° C. with a humidity of 40%. Time-dependent change in the weight of each individual was measured with a weight scale. […] The mean and standard deviation of change in the weights of 20 individuals at each time per group were determined.

[5] = test system: Swamp chrysanthemum (Leucanthemum paludosum); assay: Activation test 6 (induction and growth of flower buds); assay type: in vivo; conditions: for number of new flower buds compared with water treatment group 6: pots dipped in 200 mL testing solution 24 hours, apical buds cut off, counted 3 weeks later, 0.24% (w/w) malic acid, 0.06% (w/w) acetic acid, or both, pH=6.0
From the text: Swamp chrysanthemum (Leucanthemum paludosum of the family Compositae) raised in a 9 cm pot was used. […] All apical buds of the plants thus treated with the solution were cut off (pinched) with scissors.

[6] = test system: aromaticus (Plectranthus amboinicus); assay: Activation test 4 (induction of roots); conditions: cuttings dipped in 200 mL testing solution (0.06% (w/w) acetic acid, or 0.24% (w/w) malic acid and 0.06% (w/w) acetic acid, pH=6.0), raised 2 weeks
[7] = test system: Peperomia (Peperomia albovittata); assay: Activation test 1 (induction and growth of flower buds); conditions: 50 mL at root, 24 hours: 20 mM acetic acid alone, or 20 mM acetic acid and 0.075 μM malic acid, 22° C., humidity 40%, left standing 3 weeks

SMILES	ability of plants to tolerate drying at a high temperature ([1]; 10 mM acetic acid, 42° C., compared with water treatment group 1)	survival rate ([1]; left standing 5 days) [%]	survival rate ([1]; still standing 7 days) [%]	survival rate ([2]; still standing 3 days) [%]	survival rate ([2]; still standing 4 days) [%]	ability to tolerate drying at a high temperature (order of groups) ([2]; order: acetic acid+malic acid treatment group 3, acetic acid treatment group 3, water treatment group 3)	increase in wet weight ([3]; against water treatment group 2, 0.06% (w/w) acetic acid, or 0.24% (w/w) malic acid and 0.06% (w/w) acetic acid, 20 individuals) [%]	significant difference in wet root weight after harvest against water treatment group 3 [4]	effect of maintaining the freshness of plants after harvest (spinach; stored at 4° C.)	reduction preventing effect on decrease in water content compared with water treatment group 5 (spinach; after 96 hours at 4° C., 0.06% (w/w) acetic acid, or with 0.24% (w/w) malic acid) [%]	water retaining effect compared with water treatment group 5 and malic acid treatment group 5 (spinach; at and after 12 hours from the start of refrigeration, 4° C.)	new formation and formation of apical buds and flower buds ([5]; conclusion of activation test 6)	number of new flower buds compared with water treatment group 6 [5]	new roots confirmed [6]	number of flower buds after flowering that grew into 3 cm or larger ([7]; water treatment group 0)	number of flower buds formed before flowering ([7]; water treatment group 3)	significant difference in wet weight against water treatment group 2 ([3]; 0.24% (w/w) aqueous malic acid solution, Welch test)	significant difference in the rate of decrease in wet weight against water treatment group 5 (spinach; 0.24% (w/w) malic acid, pH=6.0, stored at 4° C.)
CC(=O)O [acetic acid]	potentiated the ability of plants to tolerate drying at a high temperature	100	100	100	0	more potentiated	122	No significant difference	effect of maintaining the freshness of plants after harvest was shown	7.1	marked water retaining effect	can promote the new formation and formation of apical buds and flower buds	increase in the number of flower buds	New roots were confirmed in neither	0	5		
O=C(O)CC(O)C(=O)O (centres unmarked) [malic acid]								No significant difference					No significant difference				No significant difference	No significant difference
